Assay results from patent publication US20250255966A1, “CORN PHYTOGLYCOGEN FORMULATIONS FOR STABILIZING PROTEINS” (UNIVERSITY OF FLORIDA RESEARCH FOUNDATION, INCORPORATED, priority 2022, published 2025).

Tested on: GFP
Assay: GFP preservation, comparison with common excipients
Type: biochemical
Settings: after 10 cycles of lyophilization, excipient 20 mg/mL, 4 μM GFP
Experimental: As a model protein, 4 μM GFP was used. Each excipient was prepared at a concentration of 20 mg/mL as described above. Each excipient was mixed with GFP at a 1:1 (v/v) ratio. PBS without excipient was used as a control group. Samples were lyophilized, activity was measured, and relative activity was calculated using the same methods as above.

Row | Compound | GFP stabilizing activity vs BSA | effectiveness as GFP/protein stabilizer
1 | OC[C@H]1O[C@@](CO)(O[C@H]2O[C@H](CO)[C@@H](O)[C@H](O)[C@H]2O)[C@@H](O)[C@@H]1O [sucrose] | comparable | –
2 | OC[C@H]1O[C@H](O[C@H]2O[C@H](CO)[C@@H](O)[C@H](O)[C@H]2O)[C@H](O)[C@@H](O)[C@@H]1O [trehalose] | comparable | –
3 | polyethylene glycol [PEG] | – | not an effective GFP stabilizer
